Read-outs that look alike come from different tables or passages of the source.
Key:
[1] = system: NF-κB; experiment: cell-based NF-κB FRET assay; settings: compound + LPS; two point normalized, compound 1 as 200%, LPS (10 ng/mL) as 100%
From the text: Site A was assigned the 4-substituent of thiazole ring, site B was the thiazole ring itself, site C was the central amide bond in the structure, site D was the benzene ring bearing 1,4-carboxyl and sulfamoyl group, site E was the sulfonamide functional group and site F was the amide substituent on the sulfamoyl group.

[2] = system: THP-1 cells; experiment: Cell viability assay (MTT); assay type: cell-based; settings: compound 5 μM alone, 18 h, normalized to DMSO as 100%
In short: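 THP-1 cells in RPMI/10% FBS got compound at a final 5 μM (0.05% DMSO) for 18 h. MTT (0.5 mg/mL) was then added for 4 to 6 h, followed by SDS/HCl lysis overnight. Absorbance was read at 570 nm against 650 nm reference.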

[3] = system: NF-κB; experiment: Measurement of NF-κB activation using THP1-Blue NF-κB cells (SEAP); assay type: cell-based; settings: for activity at 5 µM: 20 h, two point normalized, compound 1 as 200%; for NF-κB activity (SAR discussion, in words): evaluated in both the presence and absence of LPS
[4] = compound 5 μM + LPS, LPS (10 ng/mL) as 100%, read-out: NF-κB SEAP Compound + LPS % Activation
[5] = compound 5 μM alone, LPS or DMSO as 100%, read-out: NF-κB SEAP Compound alone % Activation

## Cc1ccc(C)c(-c2c[nH]c(NC(=O)c3ccc(S(=O)(=O)N4CCCCC4)cc3)n2)c1 [Compound 18a, N-(4-(2,5-dimethylphenyl)-1H-imidazol-2-yl)-4-(piperidin-1-ylsulfonyl)benzamide]
[1]
  NF-κB FRET Compound + LPS % Activation: 142.21%
[2]
  MTT Compound alone % Viability: 50.69%
[3]; [4]
  activity at 5 µM: 97.3%
[3]; [5]
  activity at 5 µM: 99.3%
[3]
  NF-κB activity (SAR discussion, in words): none of these molecules that replaced the thiazole functionality were active

## Cc1ccc(C)c(-c2csc(N(C)C(=O)c3ccc(S(=O)(=O)N4CCCCC4)cc3)n2)c1 [Compound 34c, N-(4-(2,5-dimethylphenyl)thiazol-2-yl)-N-methyl-4-(piperidin-1-ylsulfonyl)benzamide]
[1]
  NF-κB FRET Compound + LPS % Activation: 143.05%
[2]
  MTT Compound alone % Viability: 97.43%
[3]; [4]
  activity at 5 µM: 105%
[3]; [5]
  activity at 5 µM: 101%
[3]
  NF-κB activity (SAR discussion, in words): inactive

## CCCc1csc(NC(=O)c2ccc(S(=O)(=O)N3CCCCC3)cc2)n1 [Compound 12i, 4-(piperidin-1-ylsulfonyl)-N-(4-propylthiazol-2-yl)benzamide]
[1]
  NF-κB FRET Compound + LPS % Activation: 112.46%
[2]
  MTT Compound alone % Viability: 122.66%
[3]; [4]
  activity at 5 µM: 94.2%
[3]; [5]
  activity at 5 µM: 99.2%
[3]
  NF-κB activity (SAR discussion, in words): None of these molecules had any NF-κB activity

## C#CCN(CCC)S(=O)(=O)c1ccc(C(=O)Nc2nc(-c3cc(C)ccc3C)cs2)cc1 [Compound 72c, N-(4-(2,5-dimethylphenyl)thiazol-2-yl)-4-(N-(prop-2-yn-1-yl)-N-propylsulfamoyl)benzamide]
[1]
  NF-κB FRET Compound + LPS % Activation: 133.88%
[2]
  MTT Compound alone % Viability: 84.00%
[3]; [4]
  activity at 5 µM: 122%
[3]; [5]
  activity at 5 µM: 103%
[3]
  NF-κB activity (SAR discussion, in words): lost their activity

## CCOC1CCN(S(=O)(=O)c2ccc(C(=O)Nc3nc(-c4cc(C)ccc4C)cs3)cc2)CC1 [Compound 58g, N-(4-(2,5-dimethylphenyl)thiazol-2-yl)-4-((4-ethoxypiperidin-1-yl)sulfonyl)benzamide]
[1]
  NF-κB FRET Compound + LPS % Activation: 189.46%
[2]
  MTT Compound alone % Viability: 112.63%
[3]; [4]
  activity at 5 µM: 178%
[3]; [5]
  activity at 5 µM: 200%
[3]
  NF-κB activity (SAR discussion, in words): active

## Cc1ccc(C)c(-c2csc(NC(=O)c3ccc(S(=O)(=O)N4CCN(C(=O)OC(C)(C)C)CC4)cc3)n2)c1 [Compound 58f, tert-butyl 4-((4-((4-(2,5-dimethylphenyl)thiazol-2-yl)carbamoyl)phenyl)sulfonyl)piperazine-1-carboxylate]
[1]
  NF-κB FRET Compound + LPS % Activation: 95.64%
[2]
  MTT Compound alone % Viability: 81.23%
[3]; [4]
  activity at 5 µM: 105%
[3]; [5]
  activity at 5 µM: 101%
[3]
  NF-κB activity (SAR discussion, in words): inactive

## Cc1ccc2c(c1)-c1nc(NC(=O)c3ccc(S(=O)(=O)N4CCCCC4)cc3)sc1C2 [Compound 12r, N-(5-methyl-8H-indeno[1,2-d]thiazol-2-yl)-4-(piperidin-1-ylsulfonyl)benzamide]
[1]
  NF-κB FRET Compound + LPS % Activation: 129.01%
[2]
  MTT Compound alone % Viability: 82.46%
[3]; [4]
  activity at 5 µM: 95.6%
[3]; [5]
  activity at 5 µM: 102%
[3]
  NF-κB activity (SAR discussion, in words): weakly active

## Cc1cc(C)cc(-c2csc(NC(=O)c3ccc(S(=O)(=O)N4CCCCC4)cc3)n2)c1 [Compound 12o, N-(4-(3,5-dimethylphenyl)thiazol-2-yl)-4-(piperidin-1-ylsulfonyl)benzamide]
[1]
  NF-κB FRET Compound + LPS % Activation: 170.36%
[2]
  MTT Compound alone % Viability: 92.91%
[3]; [4]
  activity at 5 µM: 93.2%
[3]; [5]
  activity at 5 µM: 98.2%
[3]
  NF-κB activity (SAR discussion, in words): inactive

## CC(=O)N1CCN(S(=O)(=O)c2ccc(C(=O)Nc3nc(-c4cc(C)ccc4C)cs3)cc2)CC1 [Compound 58j, 4-((4-acetylpiperazin-1-yl)sulfonyl)-N-(4-(2,5-dimethylphenyl)thiazol-2-yl)benzamide]
[1]
  NF-κB FRET Compound + LPS % Activation: 90.73%
[2]
  MTT Compound alone % Viability: 72.09%
[3]; [4]
  activity at 5 µM: 101%
[3]; [5]
  activity at 5 µM: 101%
[3]
  NF-κB activity (SAR discussion, in words): inactive

## Cc1ccc(C)c(-c2csc(NC(=O)c3ccc(S(=O)(=O)N4CCC5(CC4)N=N5)cc3)n2)c1 [Compound 72e, 4-((1,2,6-triazaspiro[2.5]oct-1-en-6-yl)sulfonyl)-N-(4-(2,5-dimethylphenyl)thiazol-2-yl)benzamide]
[1]
  NF-κB FRET Compound + LPS % Activation: 168.82%
[2]
  MTT Compound alone % Viability: 84.40%
[3]; [4]
  activity at 5 µM: 168%
[3]; [5]
  activity at 5 µM: 144%
[3]
  NF-κB activity (SAR discussion, in words): active

Source: US12091393B2, “Small molecule vaccine adjuvant for enhancing or prolonging immune response” (The Regents of the University of California, priority 2018, dated 2024)
